Key:
[1] = en solution aqueuse, en dessous d'un pH de 6,8; cited from earlier work
[2] = ATR-FTIR spectroscopy of the effect on artificial lipid bilayer membranes (phase transition); conditions: DPPC membranes
From the text: (§1) L'effet, sur les bicouches lipidiques qui constituent les membranes biologiques, d'un complexe suivant l'invention renfermant de l'acide orthosilicique et de la vanilline, a été étudié par spectroscopie ATR-FTIR. Des membranes artificielles formées de DPPC (1,2 dipalmitoyl-sn-glycéro-3-phosphatydilcholine) ou d'un mélange 85/15 de DPPC/DPPS (1,2 dipalmitoyl-sn-glycéro-3-phosphatydilsérine) ont été utilisées. Les membranes présentent des transitions de phase à des températures caractéristiques (Tc à 41 °C et 53°C pour le DPPC et le DPPS respectivement). […] Les résultats tendent à montrer que le complexe s'insère dans la bicouche lipidique et de ce fait diminue les interactions entre les lipides. […] Il se produit une séparation de phase et le mélange lipidique n'est plus homogène. Ceci suggère que le composé aromatique stabilisant l'acide orthosilicique a une affinité plus grande pour un des deux lipides ce qui provoque une ségrégation spatiale des composants de la membrane.

[3] = ATR-FTIR spectroscopy of the effect on artificial mixed lipid bilayer membranes (phase transition); conditions: DPPC/DPPS 85/15 membranes
From the text: as §1

Substance: complexe de silicium-catéchol
- dissociation du complexe [1]: complètement dissocié

Substance: complexe stabilisé d'acide orthosilicique et de 4-hydroxy-3-méthoxybenzaldéhyde (vanilline) [Exemple 1]
- effet sur la transition de phase des lipides [2]: diminue l'énergie requise pour que les lipides participent à la transition de phase
- effet sur le mélange lipidique [3]: induit une démixtion des deux lipides

— patent publication EP2526954A1, “Bioavailable silicon complex, method for preparing same and use thereof” (Dexsil Labs, priority 2011, dated 2012)
